Patent publication EP0906100B1, “USE OF 5-HT 1A? RECEPTOR ANTAGONISTS FOR THE TREATMENT OF URINARY INCONTINENCE” (RECORDATI S.A., priority 1996, dated 1997)
Read-outs that look alike come from different tables or passages of the source.

System: cystometric parameters (bladder volume capacity, micturition pressure)
Test: Cystometric parameters (BVC, MP) in the conscious rat
Type: in vivo, rats
Conditions: for BVC before treatment / MP before treatment: baseline; for BVC before treatment / MP before treatment / BVC after treatment / MP after treatment: mean±S.E.; for effect on MP (in words) / effect on BVC (in words): NAN-190 up to the highest administrable dose of 300 µg/kg; for ED50: Rattus norvegicus, read-out: approximate ED50 value, reduction of MP
Method: Male Sprague Dawley rats (Crl: CD° BR) weighing 250-350 g were used. The animals were housed with free access to food and water and maintained on a forced 12 h alternating light-dark cycle at 22-24°C for at least one week, except during performance of the experiment.
An approximately 10 mm long midline incision was made in the shaved and cleaned abdominal wall. The urinary bladder was gently freed from adhering tissues, emptied, and then cannulated, via an incision at the dome, with a polyethylene cannula (Portex PP30), which was permanently sutured with silk thread. The cannula was exteriorized through a subcutaneous tunnel in the retroscapular area, where it was connected with a plastic adapter to avoid the risk of removal by the animal. For intravenous (i.v.) injection of test compounds, a PE 50 polyethylene tubing filled with physiological saline was inserted into the jugular vein and exteriorized in the retroscapular area.
Since cystometrographic parameters have been reported to be influenced by the time elapsed after catheter implantation […].
On the day of the experiment, the rats were placed in Bollman's cages; after a stabilization period of 20 min, the free tip of the bladder catheter was connected through a T-shaped tube to a pressure transducer (Bentley T 800/Marb P 82) and to a peristaltic pump (Gilson minipuls 2) for a continuous infusion, at the constant rate of 0.1 ml/min, of saline solution into the urinary bladder. The intraluminal pressure signal during infusion was continuously recorded on a polygraph (Battaglia Rangoni KO 380 with ADC1/T amplifier). Two urodynamic parameters were evaluated: bladder volume capacity (BVC) and micturition pressure (MP). BVC (in ml) is defined as the minimum volume infused after which detrusor contraction (followed by micturition) occurs. MP (in mmHg) is defined as the maximal intravesical pressure induced by the contraction of detrusor during micturition. Basal BVC and MP values were calculated as the means of the first two recorded cystometrograms. At this point, the infusion was interrupted and the test compounds were administered. Fifteen minutes after intravenous administration, or one hour after oral drug administration, two additional cystometrograms were recorded in each animal and the mean values of the two cystometrographic parameters were calculated.
The statistical significance of the differences in urodynamic parameter values was evaluated by Student's t test for paired data. Only changes showing a probability P<0.01 were considered to be significant.

[1] = 100 µg/kg i.v., 15 min after injection
[2] = 300 µg/kg i.v., 15 min after injection
[3] = 1000 µg/kg i.v., 15 min after injection
[4] = 1 mg/kg p.o., 1 hour after oral administration
[5] = 2000 µg/kg i.v., 15 min after injection
[6] = 3 mg/kg p.o., 1 hour after oral administration
[7] = 10 mg/kg p.o., 1 hour after oral administration
[8] = 30 µg/kg i.v., 15 min after injection
[9] = 30 mg/kg p.o., 1 hour after oral administration

## COc1ccccc1N1CCN(CCN(C(=O)C2CCCCC2)c2ccccn2)CC1 [Compound A, N-{2-[4-(2-methoxyphenyl)-1-piperazinyl]-ethyl}-N-(2-pyridyl)-cyclohexanecarboxamide]
100 µg/kg i.v. group
  BVC before treatment: 0.65 ± 0.06 mL
  MP before treatment: 93.0±8.3 mmHg
[1]
  BVC % change: +4%
  MP % change: -10%
  BVC after treatment: 0.66 ± 0.08 mL
  MP after treatment: 83.8±8.7 mmHg
300 µg/kg i.v. group
  BVC before treatment: 0.47 ± 0.05 mL
  MP before treatment: 78.7±5.8 mmHg
[2]
  BVC % change: +32%
  MP % change: -11%
  BVC after treatment: 0.63 ± 0.06 mL
  MP after treatment: 70.0±4.1 mmHg
1000 µg/kg i.v. group
  BVC before treatment: 0.64 ± 0.05 mL
  MP before treatment: 104.6±6.4 mmHg
[3]
  BVC % change: +29%
  MP % change: -13%
  BVC after treatment: 0.83 ± 0.07 mL
  MP after treatment: 91.0±6.3 mmHg
1 mg/kg p.o. group
  BVC before treatment: 0.52 ± 0.07 mL
  MP before treatment: 96.0±8.4 mmHg
[4]
  MP % change: -2%
  BVC after treatment: 0.60 ± 0.08 mL
  MP after treatment: 93.7±7.2 mmHg
2000 µg/kg i.v. group
  BVC before treatment: 0.48 ± 0.04 mL
  MP before treatment: 101.8±10.9 mmHg
[5]
  BVC % change: +32%
  MP % change: -20%
  BVC after treatment: 0.63 ± 0.05 mL
  MP after treatment: 81.5±14.1 mmHg
3 mg/kg p.o. group
  BVC before treatment: 0.67 ± 0.07 mL
  MP before treatment: 112.5±6.5 mmHg
[6]
  BVC % change: +35%
  MP % change: -4%
  BVC after treatment: 0.91 ± 0.10 mL
  MP after treatment: 107.6±9.2 mmHg
10 mg/kg p.o. group
  BVC before treatment: 0.54 ± 0.06 mL
  MP before treatment: 90.2±7.1 mmHg
[7]
  BVC % change: +37%
  MP % change: -4%
  BVC after treatment: 0.73 ± 0.10 mL
  MP after treatment: 86.6±7.6 mmHg
Conscious rats, i.v.
  effect on MP (in words): inactive

## COc1ccccc1N1CCN(CCCCN2C(=O)c3ccccc3C2=O)CC1 [NAN-190, 1-(2-methoxyphenyl)-4-[4-(2-phthalimido)-butyl]-piperazine]
30 µg/kg i.v. group
  BVC before treatment: 0.74 ± 0.09 mL
  MP before treatment: 99.4±10.1 mmHg
[8]
  BVC % change: +6%
  MP % change: +5%
  BVC after treatment: 0.78 ± 0.10 mL
  MP after treatment: 104.6±9.7 mmHg
100 µg/kg i.v. group
  BVC before treatment: 0.68 ± 0.10 mL
  MP before treatment: 93.8±11.5 mmHg
[1]
  BVC % change: +12%
  MP % change: -12%
  BVC after treatment: 0.76 ± 0.10 mL
  MP after treatment: 82.5±9.2 mmHg
300 µg/kg i.v. group
  BVC before treatment: 0.62 ± 0.06 mL
  MP before treatment: 86.6±10.3 mmHg
[2]
  BVC % change: -1%
  MP % change: +2%
  BVC after treatment: 0.61 ± 0.06 mL
  MP after treatment: 88.4±11.8 mmHg
10 mg/kg p.o. group
  BVC before treatment: 0.54 ± 0.08 mL
  MP before treatment: 106.1±10.4 mmHg
[7]
  BVC % change: -14%
  MP % change: -14%
  BVC after treatment: 0.46 ± 0.07 mL
  MP after treatment: 90.8±12.5 mmHg
30 mg/kg p.o. group
  BVC before treatment: 0.71 ± 0.09 mL
  MP before treatment: 105.1±10.5 mmHg
[9]
  BVC % change: -15%
  MP % change: -9%
  BVC after treatment: 0.60 ± 0.09 mL
  MP after treatment: 95.8±15.3 mmHg
Conscious rats, i.v.
  effect on BVC (in words): devoid of significant effects
  effect on MP (in words): devoid of significant effects
Conscious rats, oral, doses up to 30 mg/kg
  activity on cystometric parameters after oral administration (in words): inactive

## CCN(CC)CC#CCOC(=O)C(O)(c1ccccc1)C1CCCCC1 (stereo not drawn) [Oxybutynin, oxybutynin]
100 µg/kg i.v. group
  BVC before treatment: 0.82 ± 0.15 mL
  MP before treatment: 95.2±9.2 mmHg
[1]
  BVC % change: +9%
  MP % change: -19%
  BVC after treatment: 0.89 ± 0.18 mL
  MP after treatment: 77.4±10.3 mmHg
300 µg/kg i.v. group
  BVC before treatment: 0.83 ± 0.13 mL
  MP before treatment: 82.3±8.7 mmHg
[2]
  BVC % change: 0%
  MP % change: -39%
  BVC after treatment: 0.83 ± 0.12 mL
  MP after treatment: 50.5±6.3 mmHg
1000 µg/kg i.v. group
  BVC before treatment: 0.94 ± 0.19 mL
  MP before treatment: 110.9±10.2 mmHg
[3]
  BVC % change: +7%
  MP % change: -73%
  BVC after treatment: 1.00 ± 0.18 mL
  MP after treatment: 29.6±5.6 mmHg
1 mg/kg p.o. group
  BVC before treatment: 0.56 ± 0.11 mL
  MP before treatment: 92.1±13.3 mmHg
[4]
  BVC % change: +31%
  MP % change: -16%
  BVC after treatment: 0.74 ± 0.11 mL
  MP after treatment: 77.3±9.8 mmHg
3 mg/kg p.o. group
  BVC before treatment: 0.54 ± 0.07 mL
  MP before treatment: 82.1±5.1 mmHg
[6]
  BVC % change: +18%
  MP % change: -49%
  BVC after treatment: 0.63 ± 0.13 mL
  MP after treatment: 42.1±5.1 mmHg
10 mg/kg p.o. group
  BVC before treatment: 0.55 ± 0.08 mL
  MP before treatment: 98.3±9.0 mmHg
[7]
  BVC % change: +27%
  MP % change: -68%
  BVC after treatment: 0.70 ± 0.11 mL
  MP after treatment: 31.8±3.9 mmHg
iv, conscious rats, i.v.
  ED50: ~0.4 mg/kg
Conscious rats, oral administration
  ED50: ~4 mg/kg
Conscious rats, i.v.
  effect on BVC (in words): inactive
